Series [1] is described as follows: Radical scavenging, glucose oxidase/luminol luminescence. It counts as biochemical. As to conditions: concentration reducing luminescence/radical by 50%; mean ± SD, three independent experiments. As to the method: A. Measurement of Radical Scavenging
A mixture comprising glucose oxidase (GO), luminol, sodium selenite [IV] ([…]) and cobalt [II] (Co^+2) all in Hank's Balance Salt Solution (HBSS) was used (Ginsburg et al, 2004). The production of H2O2 produces a burst of luminescence within 30-60 sec, which lasts for 7-10 min. The luminescence involves oxidation of SEL+5 to it SEL+6 and also the generation of oxidants, which are catalyzed by Co^+2. This method mimics infection and inflammation conditions in which there is an accumulation of several oxidant species. This method provides a source of several radicals. Reduction in luminescence by the compounds is due to their ability to sequester radicals and was measured after addition of several concentrations of each compound. The concentration of each compound that reduced the luminescence by 50% was calculated.

Series [2] has as its target T1, BuChE (UniProt P81908).
T1 construct: 120 min incubation; BuChE IC50
Format: biochemical, human or equine serum. As to the method:
B. Measurement of Acetylcholinesterase (AChE) and Butylcholinesterase (BuChE) Inhibition In Vitro
The enzyme was incubated at 37° C. with 6-10 concentrations of the compounds tested and samples were collected at 15, 30, 60 and 120 min Aliquots were transferred to an Elisa multiscan microplate reader (Labsystems) at 15-60 sec time intervals for the determination of residual AChE activity, with Ascent PC software. […] The % inhibition of AChE by each concentration was calculated by comparison with the activity of the enzyme in the absence of drug. […] BuChE-inhibitory activity was determined as described above using BuChE (Sigma Israel) with butylthiocholine iodide (BuTh) 0.075M as a substrate.

In series [3] the test system is TNF-α, BV2 mouse microglial cells. Put plainly: TNF-α reduction in LPS-stimulated BV2 microglia. Format: cell-based. The method, then: The BV2 mouse microglial cells were created by infecting primary mouse microglia with v-raf/v-myc oncogen-carrying retrovirus and donated by Dr. Sigal Fleisher—Berkovich (Ben-Gurion University of the Negev). The cells were cultured in RPMI 1640 containing 0.4 mM L-Glutamine, 10% FCS, 100 units/ml penicillin, 100 μg/ml streptomycin and maintained in a humidified incubator at 37° C. with 5% CO2. For measurement of the effect of compounds on the release of NO the cells were seeded in a density of 80,000 cells/ml and confluence of about 60%, and incubated with test compounds (in the absence of FCS) for […] All the medium was removed and fresh medium containing FCS and LPS (10 μg/ml) added and the cells maintained at 37° C. for 24 h. The release of NO into the medium was determined by measurement of nitrite levels using Griess reagent reaction. For measurement of protein levels of cytokines cells were seeded in a density of 80,000 and incubated with test compounds (in the absence of FCS) and then with LPS as described above. The medium was centrifuged and supernatants collected after 6 h for TNF-α (Biolegend) and after 20 h for IL-6 (Biolegend).

Setting [4] is: read-out: IC50 BuChE 120 min, Table 3, 120 min incubation.

Molecules are shown by their SMILES. Counter-ions that a name gives are not always drawn. Like-named read-outs stand apart in the source and are kept apart here.

One may read the IC50 as the concentration needed to halve the response being measured. Broadly, the melting point is the temperature, or range, at which the solid turns liquid.

With `COc1ccc(N(C)C(=O)Oc2cccc3c2C(CCC(=O)O)CN3)cc1` (stereo not drawn) [AN-821, hydrochloride], the IC50 in series [1] was 4.33 ± 0.06 µM; in series [2] (setting [4]) it was 417 µM. The molecule `CCN(C)C(=O)Oc1ccc2c(/C=C/C(=O)OC)c[nH]c2c1` came in with a melting point of 142 to 145 °C. Consider `COC(=O)CCc1cn(C)c2cc(O)ccc12`, for which the melting point fell in the range of 35 to 40 °C. Same read-out and setting: with `CCN(C)C(=O)Oc1ccc2c(CCC(=O)OC)cn(C)c2c1` the figure was 49 to 52 °C. The same measure, in the same setting: the figure for `CCN(C)C(=O)Oc1ccc2cc[nH]c2c1` is 105 to 108 °C.

`CCCCN(C)C(=O)Oc1ccc2c(C=O)cn(C)c2c1` yielded a melting point of 90 to 95 °C. The same measure, in the same setting: the figure for `COc1ccc(N(C)C(=O)Oc2cccc3[nH]cc(C=O)c23)cc1` is 173 to 175 °C. `COc1ccc(N(C)C(=O)Oc2cccc3c2C(CCC(=O)O)CN3C)cc1` (stereo not drawn) [AN-822, hydrochloride]: the results for the half-inhibitory concentration (IC50) in series [1] and in series [2] (setting [4]) were 10.2 ± 4.1 µM and > 600 µM, respectively. On to `CCN(C)C(=O)Oc1ccc2c(/C=C/C(=O)OC)cn(C)c2c1`, for which the melting point fell in the range of 105 to 110 °C. `CCN(C)C(=O)Oc1cccc2[nH]ccc12` returned a melting point of 113 to 115 °C. The same measure, in the same setting: the figure for `CCN(C)C(=O)Oc1ccc2c(C=O)c[nH]c2c1` is 170 to 175 °C; for `CCN(C)C(=O)Oc1ccc2c(C=O)cn(C)c2c1` it is 124 to 128 °C. On to `CCN(C)C(=O)Oc1cccc2c1ccn2C`, for which the melting point is 42 to 45 °C.

For `CCN(C)C(=O)Oc1ccc2c(c1)NCC2` [AN-885, Indolin-6-yl ethyl(methyl)carbamate hydrochloride], the results for the IC50 in series [1] and in series [2] (setting [4]) were 1.15 ± 0.01 µM and 58.7 µM, respectively. On to `O=C(O)/C=C/c1c[nH]c2cccc(OCc3ccccc3)c12`, for which the melting point was 163 to 164 °C.

In turn, `O=C(O)CCc1c[nH]c2cccc(O)c12` displayed a melting point of 118 to 120 °C. In the case of `CCN(C)C(=O)Oc1cccc2c1c(/C=C/C(=O)OC)cn2C`, the melting point lay within 97 to 100 °C.

Molecule `COC(=O)CCc1c[nH]c2cccc(O)c12` showed a melting point of 93 to 95 °C. On the same count and under the same terms, the figure for `CCN(C)C(=O)Oc1cccc2[nH]cc(CCC(N)=O)c12` is 64 to 66 °C. On to `CCCCN(C)C(=O)Oc1ccc2c(/C=C/C(=O)OC)cn(C)c2c1`, for which the melting point was in the range of 65 to 70 °C.

`COc1ccc(N(C)C(=O)Oc2ccc3c(C=O)cn(C)c3c2)cc1` yielded a melting point of 110 to 115 °C. Same read-out and setting: the figure for `COc1ccc(N(C)C(=O)Oc2ccc3c(C=O)c[nH]c3c2)cc1` is 218 to 220 °C. The same measure, in the same setting: the figure for `COC(=O)/C=C/c1c[nH]c2cc(O)ccc12` is 195 to 200 °C. Regarding `[2H]c1cc2c(cc1O)N(C)CC2CCC(=O)O` (stereo not drawn) [AN-849, Methyl 3-(5-deuteriu-6-hydroxy-1-methylindolin-3-yl) propanoic acid hydrochloride], half-maximal inhibition in series [1] (IC50) was put at 0.84 ± 0.05 µM.

Turning to `CCN(C)C(=O)Oc1cccc2[nH]cc(/C=C/C(=O)O)c12`, the melting point is 164 to 166 °C. On to `CCN(C)C(=O)Oc1cccc2c1NCC2CCC(=O)OC` (stereo not drawn) [AN-852, Methyl 3-(7-(ethyl(methyl)carbamoyloxy)indolin-3-yl)propanoate hydrochloride], for which, in series [2] (read-out: BuChE IC50, most potent BuChE inhibitors), the IC50 came to 0.08 µM. `CCCCN(C)C(=O)Oc1ccc2cc[nH]c2c1` yielded a melting point of 84 to 87 °C.

`COC(=O)/C=C/c1c[nH]c2cc(OCc3ccccc3)ccc12` returned a melting point of 174 to 178 °C. Still for that read-out and setting: the figure for `COc1ccc(N(C)C(=O)Oc2ccc3cc[nH]c3c2)cc1` is 168 to 173 °C; for `COC(=O)/C=C/c1c[nH]c2cccc(OCc3ccccc3)c12` it is 153 to 156 °C.

In the case of `CCN(C)C(=O)Oc1cccc2c1C(CCC(=O)OC)CN2C` (stereo not drawn) [AN-698, 3-(2-(Methoxycarbonyl)ethyl)-1-methylindolin-4-yl ethylmethylcarbamate hydrochloride], the half-maximal inhibitory concentration (IC50) in series [1] stood at 3.13 ± 0.36 µM; in series [2] (setting [4]), 6.8 µM. `COC(=O)/C=C/c1cn(C)c2cc(OCc3ccccc3)ccc12` returned a melting point of 150 to 155 °C.

In the case of `COC(=O)/C=C/c1c[nH]c2c(OCc3ccccc3)cccc12`, the melting point was in the range of 134 to 137 °C.

On to `CN(C)C(=O)Oc1cccc2c1CCN2` [AN-856, Indolin-4-yl dimethylcarbamate hydrochloride], for which the half-inhibitory concentration (IC50) in series [1] turned out to be 0.77 ± 0.03 µM; in series [2] (setting [4]), 1.3 µM. Turning to `Cn1cc(CCC(=O)O)c2ccc(O)cc21`, the melting point was in the range of 157 to 161 °C. Still for that read-out and setting: the figure for `COC(=O)CCc1cn(C)c2cccc(O)c12` is 123 to 124 °C.

Take `COc1ccc(N(C)C(=O)Oc2cccc3c2CCN3)cc1` [AN-857, Indolin-4-yl 4-methoxyphenyl(methyl)carbamate hydrochloride]: in series [2] (setting [4]), the IC50 is 3.6 µM. `CCN(C)C(=O)Oc1cccc2[nH]cc(/C=C/C(=O)OC)c12` registered a melting point of 128 to 131 °C. Same read-out and setting: with `CCN(C)C(=O)Oc1cccc2[nH]cc(/C=C/[N+](=O)[O-])c12` the figure was 171 to 174 °C; with `COC(=O)/C=C/c1cn(C)c2cccc(OCc3ccccc3)c12`, 122 to 125 °C; with `CCN(C)C(=O)Oc1cccc2c1c(C=O)cn2C`, 85 to 88 °C.

In the case of `Oc1cccc2c1CCN2` [AN-855, Indolin-4-ol hydrochloride], the “Reduction in TNF-α levels, BV2 Microglia % peak reduction” value in series [3] was 38.2 ± 3.2%. In addition, the “Reduction in TNF-α levels, BV2 Microglia range” value in series [3] (concentration range, None = no reduction up till 100 nM) is 10^−1-100 nM.

`O=C(O)CCc1c[nH]c2cc(O)ccc12` displayed a melting point of 197 to 200 °C.

Molecule `CCN(C)C(=O)Oc1ccc2ccn(CCC(=O)OC)c2c1` came in with a melting point of 94 to 96 °C. The molecule `CCN(C)C(=O)Oc1cccc2c(CCC(=O)O)c[nH]c12` yielded a melting point of 98 to 101 °C. `CCN(C)C(=O)Oc1cccc2c1C(CCC(=O)O)CN2C` (stereo not drawn) [AN-699, 3-(4-((Ethyl(methyl)carbamoyl)oxy)-1-methylindolin-3-yl)propanoic acid hydrochloride]: the IC50 in series [1] amounted to 1.64 ± 0.06 µM; in series [2] (setting [4]) it was 9.7 µM. For the molecule `COC(=O)CCc1c[nH]c2cc(O)ccc12`, the melting point was 93 to 96 °C. `CCN(C)C(=O)Oc1cccc2c1C(CCC(N)=O)CN2` (stereo not drawn) [AN-851, 3-(3-Amino-3-oxopropyl)indolin-4-yl ethyl(methyl)carbamate hydrochloride]: the 50% inhibitory concentration (IC50) in series [1] was found to be 2.39 ± 0.4 µM; in series [2] (setting [4]) it was 8.5 µM. In turn, `CCCCN(C)C(=O)Oc1cccc2[nH]ccc12` returned a melting point of 86 to 89 °C.

For the molecule `COC(=O)CCc1c[nH]c2c(O)cccc12`, the melting point was in the range of 89 to 94 °C. Take `COc1ccc(N(C)C(=O)Oc2cccc3c2c(CCC(=O)O)cn3C)cc1`: the melting point lay within 161 to 163 °C. On the same count and under the same terms, with `COC(=O)/C=C/c1cn(C)c2cc(OC(=O)N(C)c3ccc(OC)cc3)ccc12` the figure was 120 to 125 °C; with `COc1ccc(N(C)C(=O)Oc2cccc3[nH]cc(CCC(=O)O)c23)cc1`, 194 to 196 °C; with `CCOC(=O)CCc1c[nH]c2cccc(OC(=O)N(C)CC)c12`, 85 to 87 °C.

In turn, `COC(=O)CCc1cn(C)c2cccc(OC(=O)N(C)c3ccc(OC)cc3)c12` displayed a melting point of 110 to 112 °C. The same measure, in the same setting: with `COc1ccc(N(C)C(=O)Oc2cccc3[nH]ccc23)cc1` the figure was 113 to 115 °C.

Turning to `COC(=O)CCC1CN(C)c2cc(O)ccc21` (stereo not drawn) (as salt: hydrochloride), the melting point fell in the range of 104 to 108 °C. On to `CCCCN(C)C(=O)Oc1cccc2c1C(CCC(=O)OC)CN2C` (stereo not drawn) [AN-667, 3-(2-(Methoxycarbonyl)ethyl)-1-methylindolin-4-yl butylmethylcarbamate hydrochloride], for which the results for the IC50 in series [1] and in series [2] (setting [4]) were 6.84 ± 0.05 µM and 197 µM, respectively. The molecule `COC(=O)/C=C/c1c[nH]c2cccc(OC(=O)N(C)c3ccc(OC)cc3)c12` returned a melting point of 155 to 157 °C. Still for that read-out and setting: with `CCN(C)C(=O)Oc1ccc2c(CCC(=O)O)c[nH]c2c1` the figure was 132 to 136 °C.

(Values after US9499484B2, “Indole, indoline derivatives, compositions comprising them and uses thereof” (priority 2012, dated 2016).)
